Where two headings read alike, the source gives them in different places.
Assays:
Recombinant human PHD2 = Recombinant human PHD2 (Homo sapiens, UniProt Q9GZT9); experiment: PHD2 dose-response activity assay; assay type: biochemical; conditions: sub-saturating αKG
Recombinant human FIH-1 = Recombinant human FIH-1 (Homo sapiens, UniProt Q9NWT6); experiment: FIH dose-response activity assay; assay type: biochemical
FIH [1] = conditions: read-out: KM (Michaelis constant for αKG), FIH; cited from earlier work
FIH [2] = conditions: cited from earlier work

Recombinant human FIH-1, sequence (Q9NWT6 whole entry): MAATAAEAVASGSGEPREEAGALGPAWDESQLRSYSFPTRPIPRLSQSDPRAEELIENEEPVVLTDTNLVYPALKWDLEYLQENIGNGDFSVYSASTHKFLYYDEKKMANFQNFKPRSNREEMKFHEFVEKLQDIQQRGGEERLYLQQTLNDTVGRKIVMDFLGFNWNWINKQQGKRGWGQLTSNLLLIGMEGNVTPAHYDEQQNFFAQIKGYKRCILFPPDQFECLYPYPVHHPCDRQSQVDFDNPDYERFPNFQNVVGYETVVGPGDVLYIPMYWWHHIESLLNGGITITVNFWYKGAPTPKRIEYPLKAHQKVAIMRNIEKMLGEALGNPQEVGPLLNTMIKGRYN
Recombinant human PHD2, sequence (Q9GZT9 177-426): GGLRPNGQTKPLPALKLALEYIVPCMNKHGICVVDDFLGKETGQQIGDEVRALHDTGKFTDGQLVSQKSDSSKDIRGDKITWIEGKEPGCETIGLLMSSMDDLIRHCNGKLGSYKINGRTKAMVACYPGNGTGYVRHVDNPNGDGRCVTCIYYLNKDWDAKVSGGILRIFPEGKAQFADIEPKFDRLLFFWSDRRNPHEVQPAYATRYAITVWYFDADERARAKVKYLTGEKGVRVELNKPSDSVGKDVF

Compound | IC50 (Recombinant human FIH-1) | other results
Cc1ccc(C#N)c(=O)[nH]1 [Compound 1, 3-Cyano-6-methyl-2(H) pyridinone] |  | inhibition toward PHD2 (Recombinant human PHD2): no inhibition; inhibition toward FIH (Recombinant human FIH-1; dose response, sub-saturating αKG): no inhibition; IC50 (Recombinant human FIH-1; read-out: FIH IC50, 10 µM αKG, 0.5 µM FIH, 50 mM HEPES pH 7.50, 37.0 °C): > 1000 µM
O=c1cc(CO)occ1O [Compound 4, 5-Hydroxy-2-hydroxymethyl-4-pyrone] | 170 µM | 
O=C(O)c1cc(=O)c(O)co1 [Compound 5, 5-Hydroxy-4-oxo-4H-pyran-2-carboxylic acid] | 50 µM | 
Cc1occc(=O)c1O [Compound 6, 3-Hydroxy-2-methyl-4-pyrone] | 70 µM | 
O=C(O)CCC(=O)C(=O)O [αKG, alpha-ketoglutarate] |  | Km (FIH [1]): 22 ± 6 µM
N-oxalyl-D-phenylalanine |  | Ki (FIH [2]): 90 µM

Further lines, with some results ahead:

IC50 (Recombinant human FIH-1) | Compound | other results
75 µM | Oc1cccnc1O [Compound 3, 2,3-Dihydroxypyridine] | 
30 µM | Cc1c(O)c(=O)ccn1C [Compound 7, 3-Hydroxy-1,2-dimethyl-4(1H)-pyridinone] | 
10 µM | O=[N+]([O-])c1ccc(O)c(O)c1 [Compound 8, 4-Nitrocatechol] | 
50 µM | Cc1ccc(O)c(O)c1 [Compound 9, 4-Methylcatechol] | 
120 µM | CC(C)(C)c1ccc(O)c(O)c1 [Compound 10, 4-tert-Butylcatechol] | 

Reference: paper PMC3525482 (Journal of inorganic biochemistry, 2012)
